Test results: patent publication US20240116985A1, “STAPLED PEPTIDES AND METHODS THEREOF” (priority 2020, published 2024)
pIC50: −log10 of the molar value. In brackets after ≈: the same amount, converted by molar mass. Read-outs that look alike come from different tables or passages of the source.

Experiments:
[1] = molecular target: T1, full-length beta-Catenin (Uniprot ID P35222) (Homo sapiens, UniProt P35222); test: Fluorescence polarization IC50 (beta-catenin / 5FAM-TCF4 10-53 competition); assay type: binding; details: fluorescence polarization
T1 construct: 10 nM full-length beta-Catenin (Uniprot ID P35222)
T1 sequence (P35222 1-781): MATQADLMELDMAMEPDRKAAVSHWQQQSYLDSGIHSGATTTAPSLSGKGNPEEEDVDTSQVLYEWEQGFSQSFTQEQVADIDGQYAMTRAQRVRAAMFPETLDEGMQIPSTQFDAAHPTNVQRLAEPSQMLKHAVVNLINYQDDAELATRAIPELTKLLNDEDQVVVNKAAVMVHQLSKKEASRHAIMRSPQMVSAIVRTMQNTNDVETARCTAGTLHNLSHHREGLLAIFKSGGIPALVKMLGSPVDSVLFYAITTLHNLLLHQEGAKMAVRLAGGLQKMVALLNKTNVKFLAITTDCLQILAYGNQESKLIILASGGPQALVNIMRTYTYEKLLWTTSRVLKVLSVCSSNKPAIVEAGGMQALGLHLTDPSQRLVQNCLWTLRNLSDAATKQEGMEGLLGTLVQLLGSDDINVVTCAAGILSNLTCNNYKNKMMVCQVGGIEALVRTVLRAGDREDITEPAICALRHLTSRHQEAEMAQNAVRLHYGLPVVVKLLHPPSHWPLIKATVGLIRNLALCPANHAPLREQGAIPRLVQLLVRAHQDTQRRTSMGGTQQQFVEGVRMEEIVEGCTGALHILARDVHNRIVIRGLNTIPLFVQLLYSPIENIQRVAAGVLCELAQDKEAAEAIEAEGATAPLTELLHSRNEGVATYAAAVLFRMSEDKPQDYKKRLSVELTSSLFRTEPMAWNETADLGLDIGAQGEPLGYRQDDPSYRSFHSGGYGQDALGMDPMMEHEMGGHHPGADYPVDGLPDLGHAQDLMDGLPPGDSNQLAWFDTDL

[2] = Solubility in PBS; assay type: physicochemical
Summary of the method: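 The PBS solution was ultracentrifuged and the supernatant analyzed by HPLC. Its peak area was divided by that of a 50 μM peptide DMSO reference injection and multiplied by 50 uM to give solubility.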

[3] = beta-catenin, read-out: FP EC50

Structure (SMILES)	pIC50 ([1]; read-out: beta-Catenin FP IC50)	Solubility [2] [µM]	pIC50 [1, 3]
CC(=O)N1CCC[C@]12CC=CCCCC1(CCCC=CCCCOC(=O)N3CC[C@@](C(=O)N[C@@H](Cc4ccccc4Cl)C(=O)N[C@@H](Cc4csc5ccccc45)C(=O)N[C@H](CO)[C@@H](C)O)(C3)NC(=O)[C@H](CC(C)C)NC(=O)[C@H](Cc3ccccc3)NC(=O)[C@H](C)NC(=O)[C@H](CCCCNC(C)C)NC(=O)[C@H](CC(=O)O)NC(=O)[C@H](CC(=O)O)NC1=O)NC(=O)[C@H](CC(C)(C)C)NC(=O)[C@H](CC(=O)O)NC2=O (stereo partly drawn) [I-1313, Ac-PL3-Asp-Npg-B5-Asp-Asp-iPrLys-Ala-Phe-Leu-PyrS2-2C1F-BztA-Thro1]	7.92	10 (≈ 20 µg/mL)	–
CC(=O)N1CCC[C@]12CC=CCCCC1(CCCC=CCCCOC(=O)N3CC[C@@](C(=O)N[C@@H](Cc4ccccc4C(F)(F)F)C(=O)N[C@@H](Cc4csc5ccccc45)C(=O)N[C@H](CO)[C@@H](C)O)(C3)NC(=O)[C@H](Cc3ccccc3)NC(=O)[C@H](Cc3ccccc3)NC(=O)[C@H](C)NC(=O)[C@H](C)NC(=O)[C@H](Cc3cccc(C(=O)O)c3)NC(=O)[C@H](CC(=O)O)NC1=O)NC(=O)[C@H](CC(C)(C)C)NC(=O)[C@H](CC(=O)O)NC2=O (stereo partly drawn) [I-1343, Ac-PL3-Asp-Npg-B5-Asp-3COOHF-Ala-Ala-Phe-Phe-PyrS2-2F3MeF-BztA-Thro1]	6.82	10 (≈ 20.5 µg/mL)	–
CC(C)C[C@@H]1NC(=O)[C@H](Cc2ccccc2)NC(=O)[C@H](C)NC(=O)[C@H](C)NC(=O)[C@H](CC(=O)O)NC(=O)[C@H](CC(=O)O)NC(=O)C2(CCCC=CCCCOC(=O)N3CC[C@@](C(=O)N[C@@H](Cc4ccccc4)C(=O)N[C@@H](Cc4csc5ccccc45)C(=O)N[C@@H](CCC(N)=O)C(N)=O)(C3)NC1=O)CCCC=CC[C@]1(CCCN1C(=O)CCCN(C)C)C(=O)N[C@@H](CC(=O)O)C(=O)N[C@@H](CC(C)(C)C)C(=O)N2 (stereo partly drawn) [I-1358, NdiMeButC-PL3-Asp-Npg-B5-Asp-Asp-Ala-Ala-Phe-Leu-PyrS2-Phe-BztA-Gln-NH2]	7.72	10 (≈ 19.8 µg/mL)	7.72
CC(C)C[C@@H]1NC(=O)[C@H](Cc2ccccc2)NC(=O)[C@H](C)NC(=O)[C@H](C)NC(=O)[C@H](CC(=O)O)NC(=O)[C@H](CC(=O)O)NC(=O)C2(CCCC=CCCCOC(=O)N3CC[C@@](C(=O)N[C@@H](Cc4ccccc4)C(=O)N[C@@H](Cc4csc5ccccc45)C(=O)N[C@@H](CCC(N)=O)C(N)=O)(C3)NC1=O)CCCC=CC[C@]1(CCCN1C(=O)CCCN(C)C)C(=O)N[C@@H](CC(=O)O)C(=O)N[C@@H](CC(C)(C)C)C(=O)N2 (stereo partly drawn) [I-1359, NdiMeButC-PL3-Asp-Npg-B5-Asp-Asp-Ala-Ala-Phe-Leu-PyrS2-Phe-BztA-Gln-NH2]	7.06	34 (≈ 67.4 µg/mL)	7.06
CC(=O)N1CCC[C@]12CC=CCCCC1(CCCC=CCCCOC(=O)N3CC[C@@](C(=O)N[C@@H](Cc4ccccc4)C(=O)N[C@@H](Cc4csc5ccccc45)C(=O)N[C@@H](CCC(N)=O)C(N)=O)(C3)NC(=O)[C@H](CC(C)C)NC(=O)[C@H](Cc3ccccc3)NC(=O)[C@H](C)NC(=O)[C@H](CCCCNC(C)C)NC(=O)[C@H]([C@@H](C)O)NC(=O)[C@H](CC(N)=O)NC1=O)NC(=O)[C@H](C)NC(=O)[C@H](CC(=O)O)NC2=O (stereo partly drawn) [I-1376, Ac-PL3-Asp-Ala-B5-Asn-Thr-iPrLys-Ala-Phe-Leu-PyrS2-Phe-BztA-Gln-NH2]	5.38	10 (≈ 19.4 µg/mL)	–
CC(=O)N1CCC[C@]12CC=CCCCC1(CCCC=CCCCOC(=O)N3CC[C@@](C(=O)N[C@@H](Cc4ccccc4)C(=O)N[C@@H](Cc4csc5ccccc45)C(=O)N[C@@H](CCC(N)=O)C(N)=O)(C3)NC(=O)[C@H](CC(C)C)NC(=O)[C@H](Cc3ccccc3)NC(=O)[C@H](C)NC(=O)[C@H](CCCCNC(C)C)NC(=O)[C@H](CCC(N)=O)NC(=O)[C@H](CC(N)=O)NC1=O)NC(=O)[C@H](C)NC(=O)[C@H](CC(=O)O)NC2=O (stereo partly drawn) [I-1379, Ac-PL3-Asp-Ala-B5-Asn-Gln-iPrLys-Ala-Phe-Leu-PyrS2-Phe-BztA-Gln-NH2]	5.84	10 (≈ 19.7 µg/mL)	–
CC(=O)N1CCC[C@]12CC=CCCCC1(CCCC=CCCCOC(=O)N3CC[C@@](C(=O)N[C@@H](Cc4ccccc4)C(=O)N[C@@H](Cc4csc5ccccc45)C(=O)N[C@@H](CCC(N)=O)C(N)=O)(C3)NC(=O)[C@H](CC(C)C)NC(=O)[C@H](Cc3ccccc3)NC(=O)[C@H](C)NC(=O)[C@H](CCCCNC(C)C)NC(=O)[C@H](CCC(N)=O)NC(=O)[C@H](CC(=O)O)NC1=O)NC(=O)[C@H](C)NC(=O)[C@H](CC(N)=O)NC2=O (stereo partly drawn) [I-1385, Ac-PL3-Asn-Ala-B5-Asp-Gln-iPrLys-Ala-Phe-Leu-PyrS2-Phe-BztA-Gln-NH2]	5.97	10 (≈ 19.7 µg/mL)	–
CC(=O)N1CCC[C@]12CC=CCCCC1(CCCC=CCCCOC(=O)N3CC[C@@](C(=O)N[C@@H](Cc4ccccc4)C(=O)N[C@@H](Cc4csc5ccccc45)C(=O)N[C@@H](CCC(N)=O)C(N)=O)(C3)NC(=O)[C@H](CC(C)C)NC(=O)[C@H](Cc3ccccc3)NC(=O)[C@H](C)NC(=O)[C@H](CCCCNC(C)C)NC(=O)[C@H](CCCCN)NC(=O)[C@H](CC(=O)O)NC1=O)NC(=O)[C@H](C)NC(=O)[C@H](CC(N)=O)NC2=O (stereo partly drawn) [I-1386, Ac-PL3-Asn-Ala-B5-Asp-Lys-iPrLys-Ala-Phe-Leu-PyrS2-Phe-BztA-Gln-NH2]	5.65	10 (≈ 19.7 µg/mL)	–
CC(=O)N1CCC[C@]12CC=CCCCC1(CCCC=CCCCOC(=O)N3CC[C@@](C(=O)N[C@@H](Cc4ccccc4)C(=O)N[C@@H](Cc4ccc5ccccc5c4)C(=O)N[C@@H](CCC(N)=O)C(N)=O)(C3)NC(=O)[C@H](CC(C)C)NC(=O)[C@H](Cc3ccccc3)NC(=O)[C@H](C)NC(=O)[C@H](CCCCNC(C)C)NC(=O)[C@H]([C@@H](C)O)NC(=O)[C@H](CC(=O)O)NC1=O)NC(=O)[C@H](C)NC(=O)[C@H](CC(N)=O)NC2=O (stereo partly drawn) [I-1387, Ac-PL3-Asn-Ala-B5-Asp-Thr-iPrLys-Ala-Phe-Leu-PyrS2-Phe-2NapA-Gln-NH2]	5.16	10 (≈ 19.3 µg/mL)	–

More lines, in order of rising pIC50 ([1]; read-out: beta-Catenin FP IC50), values ahead:

pIC50 ([1]; read-out: beta-Catenin FP IC50)	Solubility [2] [µM]	pIC50 [1, 3]	Structure (SMILES)
5.21	10 (≈ 19.1 µg/mL)	–	CC(=O)N1CCC[C@]12CC=CCCCC1(CCCC=CCCCOC(=O)N3CC[C@@](C(=O)N[C@@H](Cc4ccccc4)C(=O)N[C@@H](Cc4csc5ccccc45)C(=O)N[C@H](C(N)=O)[C@@H](C)O)(C3)NC(=O)[C@H](CC(C)C)NC(=O)[C@H](Cc3ccccc3)NC(=O)[C@H](C)NC(=O)[C@H](CCCCNC(C)C)NC(=O)[C@H]([C@@H](C)O)NC(=O)[C@H](CC(N)=O)NC1=O)NC(=O)[C@H](C)NC(=O)[C@H](CC(=O)O)NC2=O (stereo partly drawn) [I-1378, Ac-PL3-Asp-Ala-B5-Asn-Thr-iPrLys-Ala-Phe-Leu-PyrS2-Phe-BztA-Thr-NH2]
5.54	10 (≈ 19.4 µg/mL)	–	CC(=O)N1CCC[C@]12CC=CCCCC1(CCCC=CCCCOC(=O)N3CC[C@@](C(=O)N[C@@H](Cc4ccccc4)C(=O)N[C@@H](Cc4csc5ccccc45)C(=O)N[C@@H](CCC(N)=O)C(N)=O)(C3)NC(=O)[C@H](CC(C)C)NC(=O)[C@H](Cc3ccccc3)NC(=O)[C@H](C)NC(=O)[C@H](CCCCNC(C)C)NC(=O)[C@H]([C@@H](C)O)NC(=O)[C@H](CC(=O)O)NC1=O)NC(=O)[C@H](C)NC(=O)[C@H](CC(N)=O)NC2=O (stereo partly drawn) [I-1382, Ac-PL3-Asn-Ala-B5-Asp-Thr-iPrLys-Ala-Phe-Leu-PyrS2-Phe-BztA-Gln-NH2]
5.78	10 (≈ 19.4 µg/mL)	–	CC(=O)N1CCC[C@]12CC=CCCCC1(CCCC=CCCCOC(=O)N3CC[C@@](C(=O)N[C@@H](Cc4ccccc4)C(=O)N[C@@H](Cc4csc5ccccc45)C(=O)N[C@@H](CCCCN)C(N)=O)(C3)NC(=O)[C@H](CC(C)C)NC(=O)[C@H](Cc3ccccc3)NC(=O)[C@H](C)NC(=O)[C@H](CCCCNC(C)C)NC(=O)[C@H]([C@@H](C)O)NC(=O)[C@H](CC(=O)O)NC1=O)NC(=O)[C@H](C)NC(=O)[C@H](CC(N)=O)NC2=O (stereo partly drawn) [I-1383, Ac-PL3-Asn-Ala-B5-Asp-Thr-iPrLys-Ala-Phe-Leu-PyrS2-Phe-BztA-Lys-NH2]
6.00	10 (≈ 19.4 µg/mL)	–	CC(=O)N1CCC[C@]12CC=CCCCC1(CCCC=CCCCOC(=O)N3CC[C@@](C(=O)N[C@@H](Cc4ccccc4)C(=O)N[C@@H](Cc4csc5ccccc45)C(=O)N[C@@H](CCCCN)C(N)=O)(C3)NC(=O)[C@H](CC(C)C)NC(=O)[C@H](Cc3ccccc3)NC(=O)[C@H](C)NC(=O)[C@H](CCCCNC(C)C)NC(=O)[C@H]([C@@H](C)O)NC(=O)[C@H](CC(N)=O)NC1=O)NC(=O)[C@H](C)NC(=O)[C@H](CC(=O)O)NC2=O (stereo partly drawn) [I-1377, Ac-PL3-Asp-Ala-B5-Asn-Thr-iPrLys-Ala-Phe-Leu-PyrS2-Phe-BztA-Lys-NH2]
